Numbers after ± are expanded uncertainties.
Assays:
[1] = xn = mol fraction of the nth substance listed; conditions: 283.15 K; 101 kPa; Liquid; Pycnometric method; x2 = 0
[2] = 101.33 kPa, Liquid

Row | Structure (SMILES) | mass density [1] | mass density ([2]; 283.15 K) | mass density ([2]; 288.15 K) | mass density ([2]; 293.15 K) | mass density ([2]; 298.15 K) | mass density ([2]; 303.15 K) | mass density ([2]; 308.15 K)
1 | O [water] + CC(O)CCC(C)O | 999.7 ± 0.3 kg/m3 | – | – | – | – | – | –
2 | CC(O)CCCCO (configuration not stated) [1,5-hexanediol] | – | 978.41 ± 0.69 kg/m3 | 975.51 ± 0.66 kg/m3 | 972.31 ± 0.64 kg/m3 | 968.91 ± 0.66 kg/m3 | 965.51 ± 0.67 kg/m3 | 962.15 ± 0.69 kg/m3
3 | O [water] + CC(O)CCCCO | 999.7 ± 0.3 kg/m3 | – | – | – | – | – | –
4 | CC(O)CCC(C)O (configuration not stated) [2,5-hexanediol] | – | 968.85 ± 0.68 kg/m3 | 965.56 ± 0.65 kg/m3 | 962.17 ± 0.63 kg/m3 | 959.09 ± 0.65 kg/m3 | 955.72 ± 0.67 kg/m3 | 952.39 ± 0.68 kg/m3
5 | O [water] + CCCCC(O)CO | 999.69 ± 0.3 kg/m3 | – | – | – | – | – | –
6 | CCCCC(O)CO (configuration not stated) [1,2-hexanediol] | – | 958.87 ± 1.2 kg/m3 | 955.23 ± 1.2 kg/m3 | 951.68 ± 1.2 kg/m3 | 948.08 ± 1.2 kg/m3 | 944.54 ± 1.2 kg/m3 | 940.88 ± 1.2 kg/m3
7 | O [water] + OCCCCCCO | 999.7 ± 0.3 kg/m3 | – | – | – | – | – | –

Reference: the NIST ThermoML archive (doi:10.1016/j.jct.2007.01.009)
